# Results: patent US9938292B2 (GUANGDONG ZHONGSHENG PHARMACEUTICAL CO., LTD, priority 2014, dated 2018)
# Tested on: Hedgehog signaling pathway
# Test: Gli-Luc luciferase reporter gene assay in C3H10T1/2/Gli-Luc cells under Shh-N stimulation
# Assay type: cell-based
# Conditions: 24 h, luciferase RLU, read-out: biological activity: IC50 of the inhibitory activities of compounds on the hedgehog pathway
# Text: The luciferase (Gli-Luc) reporter gene with Gli response element was transfected into C3H10T1/2 cells, under Shh-N stimulation conditions, determine the Hedgehog signaling pathway inhibitors through the detection of gene expression in cell activity report. In this study, we evaluated the inhibitory effects of compounds on Hedgehog signaling pathway in the IC50 value of the compound as an index.
# Cell lines: C3H10T1/2/Gli-Luc stable cell line • C3H10T1/2/Gli-Luc Cell culture medium (DMEM/high glucose HyClone, #SH30022.01B; 10% serum Hyclone, #SV30087; 0.4% Hygromycin B Roche, #13398200) • 0.25% Trypsin-EDTA (Gibco, #25200)
# Shh-N, HEK293/SHH-N stable cell culture supernatant
# Inoculate the logarithmic growth phase of C3H10T1/2/Gli-Luc cells into a 96-well culture plate with 20000 cells per well, cells were cultured in a 37° C., 5% CO2 incubator overnight. The next day, the compounds were diluted in the following ways: the positive compound GDC0449 (1 mM) and the compounds (1 mM) to be measured were serially diluted to 7 concentrations by DMSO according to 1:3 and 1:10 respectively, the eighth is for DMSO control, and then diluted with fresh medium 100 times. The medium of the cells cultured overnight was removed, 80 μL fresh culture medium was added per well, then 20 μL gradiently diluted positive compound and compounds to be measured and 100 μL 30 nM Shh-N containing conditioned medium were added, each concentration repeated 2 wells, at the same time, positive and negative reference well were set (i.e. Shh Ctrl: 80 μL fresh medium+20 μL 1% DMSO containing medium+100 μL 30 nM Shh-N containing conditioned medium; Unstimulated Ctrl: 180 μL fresh medium+20 μL 1% DMSO containing medium), cells were cultured in the incubator for further 24 h.
# Intracellular luciferase activity detection: take the cells out of 96-well plate, discard the culture medium, the cells were washed with PBS twice, then each well added with 20 μL lysate (Promega E1531), oscillate pyrolysis at room temperature for 30 min. 5 μL cell lysates were transferred to 384-well plate (Greiner 781074), then each well was added with 25 μL luciferase reaction liquid (Promega E1501), after rapid mixed, immediately placed into the VarioSkan Flash multi-function reading instrument to read the relative light units (RLU) value.
# Data analysis: using Prism's GraphPad 5 for data analysis. RLU reading to the logarithmic mapping of compound concentration on behalf of luciferase activity, and then curve fitting using the following equation to give IC50 value, Y (RLU)=minimum+(maximum−minimum)/(1+10^(log of compound concentration−Log IC50)).
row,SMILES,IC50 [nM]
1,Cc1cn(-c2ccc(N3C[C@@H](C)N(C(=O)c4ccccc4)[C@H](C)C3)cc2)c(=O)c2cccc(-c3ccc(C#N)cc3)c12 [Embodiment 21],100 to 500

# Same assay, conditions: Mus musculus, C3H 10T1/2, 24 h, luciferase RLU, read-out: biological activity: IC50 of the inhibitory activities of compounds on the hedgehog pathway
row,SMILES,IC50 [nM]
1,COc1c(-c2ccc(N3C[C@@H](C)O[C@@H](C)C3)cc2)cnc2c(-c3ccc(C#N)cc3)cncc12,≤ 50
2,"Cc1cn(-c2ccc(N3C[C@H](C)C[C@@H](C)C3)cc2)c(=O)c2cccc(-c3ccc(C#N)cc3)c12 [Embodiment 1, 4-(2-(4-((3R,5R)-3,5-dimethylpiperidin-1-yl)phenyl)-4-methyl-1-oxo-1,2-dihydroisoquinolin-5-yl)benzonitrile]",100 to 500
3,Cc1cn(-c2ccc(N3CC(C)OC(C)C3)cc2)c(=O)c2cccc(-c3ccc(C#N)cc3)c12 (stereo not drawn) [Embodiment 2],100 to 500
4,Cc1cn(-c2ccc(N3CC(C)CC(C)C3)cc2)c(=O)c2cccc(-c3ccc(C#N)cc3)c12 (stereo not drawn) [Embodiment 3],100 to 500
5,Cc1cn(-c2ccc(N3CCOC(C)(C)C3)cc2)c(=O)c2cccc(-c3ccc(C#N)cc3)c12 [Embodiment 4],100 to 500
6,COc1cccc(N2CCN(c3ccc(-n4cc(C)c5c(-c6ccc(C#N)cc6)cccc5c4=O)cc3)CC2(C)C)c1 [Embodiment 5],100 to 500
7,Cc1cn(-c2ccc(N3CC4CC3CO4)cc2)c(=O)c2cccc(-c3ccc(C#N)cc3)c12 (stereo not drawn) [Embodiment 6],500 to 1000
8,Cc1cn(-c2ccc(N3CC4CCC(C3)O4)cc2)c(=O)c2cccc(-c3ccc(C#N)cc3)c12 [Embodiment 7],500 to 1000
9,Cc1cn(-c2ccc(N3CCOC(CN(C)C)C3)cc2)c(=O)c2cccc(-c3ccc(C#N)cc3)c12 (stereo not drawn) [Embodiment 9],1000 to 5000
10,Cc1cn(-c2ccc(N3CCN4CCC[C@H]4C3)cc2)c(=O)c2cccc(-c3ccc(C#N)cc3)c12 [Embodiment 10],100 to 500
11,Cc1cn(-c2ccc(N3CCN4CCCC4C3)cc2)c(=O)c2cccc(-c3ccc(C#N)cc3)c12 (stereo not drawn) [Embodiment 11],100 to 500
12,Cc1cn(-c2ccc(NCCN3C[C@@H](C)O[C@@H](C)C3)cc2)c(=O)c2cccc(-c3ccc(C#N)cc3)c12 [Embodiment 12],500 to 1000
13,Cc1cn(-c2ccc(N3CCN(c4nsc5ccccc45)CC3)cc2)c(=O)c2cccc(-c3ccc(C#N)cc3)c12 [Embodiment 13],100 to 500
14,"Cc1cn(-c2ccc(N3C[C@@H](C)N(C(=O)c4ccccc4)[C@H](C)C3)cc2)c(=O)c2cccc(-c3ccc(C#N)cc3)c12 [Embodiment 14, 4-(2-(4-((3R,5R)-4-benzoyl-3,5-dimethylpiperazin-1-yl)phenyl)-4-methyl-1-oxo-1,2-dihydroisoquinolin-5-yl)benzonitrile]",50 to 100
15,Cc1cn(-c2ccc(N3CC(C)NC(C)C3)cc2)c(=O)c2cccc(-c3ccc(C#N)cc3)c12 (stereo not drawn) [Embodiment 15],100 to 500
16,Cc1cn(-c2ccc(N3CC(C)N(C(=O)OC(C)(C)C)C(C)C3)cc2)c(=O)c2cccc(-c3ccc(C#N)cc3)c12 (stereo not drawn) [Embodiment 16],100 to 500
17,CCC(=O)N1CCN(c2ccc(-n3cc(C)c4c(-c5ccc(C#N)cc5)cccc4c3=O)cc2)CC1C (stereo not drawn) [Embodiment 17],50 to 100
18,CCC(=O)N1CCN(c2ccc(-n3cc(C)c4c(-c5ccc(C#N)cc5)cccc4c3=O)cc2)CC1c1ccccc1 (stereo not drawn) [Embodiment 18],100 to 500
19,COC(=O)N1[C@H](C)CN(c2ccc(-n3cc(C)c4c(-c5ccc(C#N)cc5)cccc4c3=O)cc2)C[C@H]1C [Embodiment 19],100 to 500
20,CCOC(=O)N1[C@H](C)CN(c2ccc(-n3cc(C)c4c(-c5ccc(C#N)cc5)cccc4c3=O)cc2)C[C@H]1C [Embodiment 20],100 to 500
21,CC(=O)N1C(C)CN(c2ccc(-n3cc(C)c4c(-c5ccc(C#N)cc5)cccc4c3=O)cc2)CC1C (stereo not drawn) [Embodiment 22],50 to 100
22,Cc1cn(-c2ccc(N3CC(C)N(C(=O)C(C)C)C(C)C3)cc2)c(=O)c2cccc(-c3ccc(C#N)cc3)c12 (stereo not drawn) [Embodiment 24],50 to 100

row,SMILES,IC50 [nM]
1,Cc1cn(-c2ccc(N3CC(C)N(C(=O)C(C)(C)C)C(C)C3)cc2)c(=O)c2cccc(-c3ccc(C#N)cc3)c12 (stereo not drawn) [Embodiment 25],50 to 100
2,Cc1cn(-c2ccc(N3CC(C)N(C(=O)C4CC4)C(C)C3)cc2)c(=O)c2cccc(-c3ccc(C#N)cc3)c12 (stereo not drawn) [Embodiment 26],50 to 100
3,Cc1cn(-c2ccc(N3CC(C)N(C(=O)c4ccccc4)C(C)C3)cc2)c(=O)c2cccc(-c3ccc(C#N)cc3)c12 (stereo not drawn) [Embodiment 27],≤ 50
4,COC(=O)N1C(C)CN(c2ccc(-n3cc(C)c4c(-c5ccc(C#N)cc5)cccc4c3=O)cc2)CC1C (stereo not drawn) [Embodiment 28],≤ 50
5,Cc1cn(-c2ccc(N3CC(C)N(C(=O)OC(C)C)C(C)C3)cc2)c(=O)c2cccc(-c3ccc(C#N)cc3)c12 (stereo not drawn) [Embodiment 29],100 to 500
6,CNC(=O)N1C(C)CN(c2ccc(-n3cc(C)c4c(-c5ccc(C#N)cc5)cccc4c3=O)cc2)CC1C (stereo not drawn) [Embodiment 30],100 to 500
7,Cc1cn(-c2ccc(N3CC(C)N(S(C)(=O)=O)C(C)C3)cc2)c(=O)c2cccc(-c3ccc(C#N)cc3)c12 (stereo not drawn) [Embodiment 31],100 to 500
8,Cc1cn(-c2ccc(N3CC(C)N(S(=O)(=O)c4ccccc4)C(C)C3)cc2)c(=O)c2cccc(-c3ccc(C#N)cc3)c12 (stereo not drawn) [Embodiment 32],100 to 500
9,"Cc1cn(-c2ccc(N3CC(C)N(C)C(C)C3)cc2)c(=O)c2cccc(-c3ccc(C#N)cc3)c12 (stereo not drawn) [Embodiment 33, 4-(4-methyl-1-oxo-2-(4-(3,4,5-trimethylpiperazin-1-yl)phenyl)-1,2-dihydroisoquinolin-5-yl)benzonitrile]",100 to 500
10,CCN1C(C)CN(c2ccc(-n3cc(C)c4c(-c5ccc(C#N)cc5)cccc4c3=O)cc2)CC1C (stereo not drawn) [Embodiment 34],100 to 500
11,Cc1cn(-c2ccc(N3CC(C)N(Cc4ccccc4)C(C)C3)cc2)c(=O)c2cccc(-c3ccc(C#N)cc3)c12 (stereo not drawn) [Embodiment 35],100 to 500
12,Cc1cn(-c2ccc(N3CC(C)N(CC4CC4)C(C)C3)cc2)c(=O)c2cccc(-c3ccc(C#N)cc3)c12 (stereo not drawn) [Embodiment 36],100 to 500
13,Cc1cn(-c2ccc(N3CC(C)N(CC(C)(C)O)C(C)C3)cc2)c(=O)c2cccc(-c3ccc(C#N)cc3)c12 (stereo not drawn) [Embodiment 37],100 to 500
14,Cc1cn(-c2ccc(N3CC(C)N(c4nccs4)C(C)C3)cc2)c(=O)c2cccc(-c3ccc(C#N)cc3)c12 (stereo not drawn) [Embodiment 38],≤ 50
15,"Cc1cn(-c2ccc(N3CC(C)(C)C(O)C(C)(C)C3)cc2)c(=O)c2cccc(-c3ccc(C#N)cc3)c12 [Embodiment 39, 4-(2-(4-(4-hydroxy-3,3,5,5-tetramethylpiperidin-1-yl)phenyl)-4-methyl-1-oxo-1,2-dihydroisoquinolin-5-yl)benzonitrile]",≤ 50
16,"Cc1cn(-c2ccc(N3CCN4C(=O)CC[C@H]4C3)cc2)c(=O)c2cccc(-c3ccc(C#N)cc3)c12 [Embodiment 40, (S)-4-(4-methyl-1-oxo-2-(4-(6-oxo-hexahydropyrrolo[1,2-a]pyrazin-2(1H)-yl)phenyl)-1,2-dihydroisoquinolin-5-yl)benzonitrile]",≤ 50
17,"Cc1cn(-c2ccc(N3Cc4nnc(C(F)(F)F)n4C(C)C3)cc2)c(=O)c2cccc(-c3ccc(C#N)cc3)c12 (stereo not drawn) [Embodiment 41, 4-(4-methyl-2-(4-(5-methyl-3-(trifluoromethyl)-5,6-dihydro-[1,2,4]triazolo[4,3-a]pyrazin-7(8H)-yl)phenyl)-1-oxo-1,2-dihydroisoquinolin-5-yl)benzonitrile]",≤ 50
18,"Cc1cn(-c2ccc(N3CCN4C(=O)OCC4C3)cc2)c(=O)c2cccc(-c3ccc(C#N)cc3)c12 (stereo not drawn) [Embodiment 42, 4-(4-methyl-1-oxo-2-(4-(3-oxotetrahydro-1H-oxazolo[3,4-a]pyrazin-7(3H)-yl)phenyl)-1,2-dihydroisoquinolin-5-yl)benzonitrile]",100 to 500
19,"Cc1cn(-c2ccc(N3C[C@@H](C)O[C@@H](C)C3)cc2)c(=O)c2cccc(-c3ccoc3)c12 [Embodiment 43, 2-(4-((2S,6R)-2,6-dimethylmorpholino)phenyl)-5-(furan-3-yl)-4-methylisoquinolin-1(2H)-one]",1000 to 5000
20,Cc1cn(-c2ccc(N3C[C@@H](C)O[C@@H](C)C3)cc2)c(=O)c2cccc(-c3ccc(C#N)s3)c12 [Embodiment 44],500 to 1000
21,Cc1cn(-c2ccc(N3C[C@@H](C)O[C@@H](C)C3)cc2)c(=O)c2cccc(-c3ccc(Cl)s3)c12 [Embodiment 45],1000 to 5000
22,Cc1cn(-c2ccc(N3C[C@@H](C)O[C@@H](C)C3)cc2)c(=O)c2cccc(-c3ccc(OC(F)(F)F)cc3)c12 [Embodiment 47],1000 to 5000
